Patent publication US5880116A, “Use of celastrol to treat alzheimer's disease” (Neurocal International, priority 1996, dated 1999)

Columns and labels:
[1] = system: AA rats with experimental adjuvant arthritis; conditions: rat, in vivo; cited from earlier work
[2] = system: splenic lymphocytes; conditions: dose dependent; cited from earlier work
[3] = system: rats (psychomotor coordination); assay: Psychomotor coordination (PMC) in rota-rod apparatus; format: in vivo, rat (female Sprague-Dawley); conditions: for PMC: Psychomotor coordination: N = 6, mean ± SD
Method: (§1) Celastrol or vehicle was administered to rats as described below. Female Sprague-Dawley rats (obtained from Santiago University, Santiago de Compostela, Spain) were about 3 months old and weighed 200-250 g. The animals were maintained under standard conditions at the Euroespes Institute laboratory facilities.
(§2) The celastrol formulation was purchased in China in the form of pills under the name of "Leigongtengpian." The dose is expressed as the content of celastrol. The celastrol was dissolved in DMSO (35 μg/mL) and then adjusted to the appropriate concentration with 0.9% saline. Doses of 1.4, 7 and 35 μg/kg were administered intraperitoneally (i.p.) in a total injection volume of 2 ml/kg.
At one hour after treatment, psychomotor coordination (PMC) was evaluated in a rota-rod apparatus (Letica Scientifiic Instruments, Barcelona, Spain) which consists of a roller turning at a constant pre-selected velocity (4-40 rpm) or at an increasing velocity with constant acceleration (for example, from 4 to 40 rpm in 300 seconds), and four digital counters that are stopped when the rat falls from the rod and lowers a pedal. In this test, the animals ran on a rod with constant acceleration until they fell off because they are unable to run at the necessary velocity to maintain equilibrium. Generally, there are two main causes of low performance in this test 1) myorelaxation and 2) balance disorders, as in some vestibular and brain lesions. Improved performance is seen with drugs improving muscular strength, motor coordination and/or balance. Mean running time of five consecutive trials was taken as an index of PMC.
(§3) Data were statistically analyzed by the ANOVA and the Duncan test for multiple comparisons. Results were expressed as mean ± standard deviation (SD) in tables and as mean ± standard error of […] (SEM) in figures.

[4] = in words; cited from earlier work
[5] = system: rats (psychomotor activity); assay: Open-field psychomotor activity (PMA, VA, FF) in OUCEM-86 electronic maze; format: in vivo, rat (female Sprague-Dawley); conditions: for PMA: Psychomotor activity: N = 6, mean ± SD, 30 min recording
Method: as §1, §2
Immediately after injection, the animals were placed in the Osaka University Computerized Electronic Maze system (OUCEM-86, obtained from Bio Medica, Ltd., Osaka, Japan). The system, as previously described by Cacabelos et al (Prog. Med. 7:763-773, 1987), is integrated with the following components: A Programmable Electronic Platform (PEP) which measures 62 cm×62 cm and is equipped with 48 photo beam sensors (OPX-T30) to detect the three-dimensional position (four-footed, two-footed or rearing, and jumping) of the test animal; a Programming Panel (PP) (Model BECM-0064) for paradigm simulation; a Shock Generator Scrambler (SGS)(Model BSG-1065) to apply continuous or discontinuous electric currents to the PEP; a Control Station interface device to automatically computerize behavioral parameters; and a Computerized System (NEC PC-9801F) for data processing and experimental setting.
Tests were conducted in an open-field paradigm (where the rat can move freely) as previously described (Cacabelos et al. 1987) where psychomotor activity (PMA) was automatically recorded. Total PMA is the sum of horizontal and vertical movements. Horizontal movements are four-footed movements (FF). Vertical activity (VA) includes jumping and rearing (or two-footed) movements. The temporal profile of PMA during the 30 minutes of recording was also studied. PMA, FF and VA were expressed as total inputs/outputs (I/O). In general, increases in PMA, mainly in VA, are observed in situations of stress. A global increase in PMA is also found under treatment with stimulants and in rats with brain cholinergic deficits. Conversely, decreases in PMA are typical of sedative drugs, for instance.
as §3

[6] = system: peritoneal macrophages; conditions: dose dependent; cited from earlier work
[7] = system: rats (passive avoidance learning); assay: Passive avoidance behavior (PAB) learning, fixed-ratio maze paradigm; format: in vivo, rat (female Sprague-Dawley); conditions: for Av: number of avoidances during 10 trials / La: mean latency time per trial: N = 6, mean ± SD
Method: as §1, §2
Two hours after treatment, rats were tested for passive avoidance behavior in a PAB fixed-ratio maze paradigm, in which they learned to stay on a neutral platform (18×18 cm) in order to avoid a continuous electric footshock in the surrounding area during 10 trials (30 seconds each). The inter-trial interval was 30 seconds. The number of complete avoidances during 10 trials (Av; successful trials in which rat remains in the neutral area the entire 30-second period) and the latency per trial (La; time spent in the neutral platform before leaving it in a trial) were taken as learning indices. The number of avoidances represents a yes/no or discontinuous variable reflecting learning ability of the rats. In general, good learners perform more avoidances because they need fewer trials to learn to avoid footshock. Latency is a continuous variable measuring the time the rat is on the neutral platform without receiving footshock. Rats having the best memory or learning capacity spend more time on the neutral area. Therefore, latency is also an index of learning ability. Finally, when a drug increases the number of avoidances and mean trial latency in this paradigm, it means that this drug improves learning and memory function.
as §3

[8] = system: ICR inbred mice; conditions: 1-3 mg/kg i.p. daily; cited from earlier work
[9] = system: splenic cells; conditions: cited from earlier work
[10] = system: agitation and aggression; conditions: in vivo; cited from earlier work
[11] = system: patients clinically diagnosed with early AD; conditions: six months; cited from earlier work
[12] = system: AD patients; conditions: file history of US 5,192,753; cited from earlier work
[13] = system: patients with AD; conditions: a subgroup of patients with AD; cited from earlier work
[14] = 1.4 μg/kg i.p., 2 hours after treatment
[15] = 7.0 μg/kg i.p., * p < 0.05 vs control (0.0)

CC1=C(O)C(=O)C=C2C1=CC=C1[C@@]2(C)CC[C@@]2(C)[C@@H]3C[C@](C)(C(=O)O)CC[C@]3(C)CC[C@]12C [Celastrol]
joint edema [1]: reduced joint edema
lipid-peroxidation and free radical formation [1]: inhibition of lipid-peroxidation and free radical formation
Con A-induced IL-2 production [2]: decreased
PMC: Psychomotor coordination ([3]; 1.4 μg/kg i.p., 1 hour after treatment): 99.4 ± 19.2 sec/trial
PMC, significance of difference ([3]; 7 μg group): reached significance
PMC: Psychomotor coordination ([3]; 7.0 μg/kg i.p., ** p < 0.01 vs control (0.0)): 126.3 ± 37.6 sec/trial
PMC: Psychomotor coordination ([3]; 35.0 μg/kg i.p., 1 hour after treatment): 106.5 ± 21.3 sec/trial
PMC (FIG. 14), in words ([3]; 1.4, 7 and 35 μg treatment groups vs no-treatment group): all scored better than the no-treatment group
dose of maximum effect on PMC ([3]; i.p.): 7 µg/kg
insecticidal activity [4]: insecticidal inert
PMA vs untreated group, in words ([5]; 1.4 μg group, significance not reached): higher than for the untreated group
PMA: Psychomotor activity ([5]; 1.4 μg/kg i.p.): 3011 ± 1185 I/O
PMA: Psychomotor activity ([5]; 7.0 μg/kg i.p.): 2200 ± 1203 I/O
PMA: Psychomotor activity ([5]; 35.0 μg/kg i.p.): 1637 ± 796 I/O
four-footed (FF) activity (FIG. 12), in words ([5]; 1.4 and 7 μg groups): improved somewhat
PMA (total activity, FIG. 10), in words ([5]; 1.4 and 7 μg treatment groups): fared somewhat better
vertical activity (VA, FIG. 11), in words ([5]; 1.4 and 7 μg treatment groups vs no-treatment group): fared somewhat better than the no-treatment group
PMA over the thirty minute test interval (FIG. 13), in words ([5]; all treatment groups): a general trend of decreasing activity during the test period
dose of maximum effect on PMA ([5]; i.p.): 1.4 µg/kg
LPS-induced IL-1 production [6]: decreased
Av: number of avoidances during 10 trials [7, 14]: 4.3 ± 2.1 n°
La: mean latency time per trial [7, 14]: 18.3 ± 5.2 s
Av, significance of difference ([7]; 7 μg group): reached significance
La, significance of difference ([7]; 7 μg group): reached significance
Av: number of avoidances during 10 trials [7, 15]: 5.1 ± 1.8 n°
La: mean latency time per trial [7, 15]: 20.3 ± 2.8 s
latency time on the neutral platform (FIG. 16), in words ([7]; 7.0 μg/kg treatment group): learned significantly more quickly to stay on the platform and avoid the shock
La, significance of difference ([7]; 35 μg group): reached significance
La: mean latency time per trial ([7]; 35.0 μg/kg i.p., 2 hours after treatment): 18.8 ± 4.6 s
Av: number of avoidances during 10 trials ([7]; 35.0 μg/kg i.p., * p < 0.05 vs control (0.0)): 5.0 ± 1.4 n°
numbers of complete avoidances during 10 trials (FIG. 15), in words ([7]; 7 and 35 μg treatment groups vs no-treatment group): scored significantly higher
dose of maximum effect on PAB scores ([7]; i.p.): 7 µg/kg
antibody formation [8]: reduced antibody formation very significantly
circulating immune complex levels [8]: decreased circulating immune complex levels
serum complement [8]: increased serum complement
concentration of optimal effects on mitogen-induced splenic cell proliferation ([9]; PHA, Con A, LPS and PWM): 0.1 µg/mL
proliferation of splenic cells induced by mitogens PHA, Con A, LPS and PWM ([9]; in words): inhibited proliferation

O=C1CC2(CCCC2)CC(=O)N1CCCCN1CCN(c2ncccn2)CC1 [buspirone]
agitation and aggression [10]: reported to help reduce agitation and aggression

COc1ccc2c(c1)c(CC(=O)O)c(C)n2C(=O)c1ccc(Cl)cc1 [indomethacin]
ADAS [11]: only slight decrements
BNT [11]: slight improvement
MMSE [11]: almost no change
TT [11]: only slight decrements

C[C@]12C=CC(=O)C=C1CC[C@@H]1[C@@H]2C(=O)C[C@@]2(C)[C@H]1CC[C@]2(O)C(=O)CO [prednisone]
effect in AD patients [12]: no effect

Nc1c2c(nc3ccccc13)CCCC2 [tacrine]
cognitive and functional measures [13]: improvement

CC(C)NCC(O)COc1cccc2ccccc12 (stereo not shown) [Propranolol]
agitation and aggression [10]: reported to help reduce agitation and aggression

CC(C)NCC(O)COc1cccc2[nH]ccc12 (stereo not shown) [pindolol]
agitation and aggression [10]: reported to help reduce agitation and aggression
